As usually defined, the GI50 is the concentration at which growth is held to half of that of the control. A low value points to greater sensitivity of the cells.

This assay deals with NCIH929.1 cells. Briefly: Cell viability assay (CellTiter-Glo 2.0, ATP quantification). In kind it is cell-based. To be noted: NCIH929.1 cell viability, CellTiter-Glo 2.0, 96 hr incubation, top concentration 1 μM. On the procedure:
Example 59. Cell Viability Assay
RPMI 1640 medium, fetal bovine serum (FBS) and 2-mercaptoethanol were purchased from Gibco (Grand Island, N.Y., USA). CellTiter-Glo® 2.0 Assay was purchased from Promega (Madison, Wis., USA). NCIH929.1 cell line was purchased from ATCC (Manassas, Va., USA). Cell culture flasks and 384-well microplates were acquired from VWR (Radnor, Pa., USA).
NCIH929.1 cell viability was determined based on quantification of ATP using CellTiter-Glo® 2.0 luminescent Assay kit, which signals the presence of metabolically-active cells. Briefly, the test compound was added to 384-well plates at a top concentration of 1 μM with 10 points, half log titration in duplicates. NCIH929.1 cells were seeded into the 384-well plates in RPMI medium containing 10% FBS and 0.05 mM 2-mercaptoethanol at a cell density of 750 cells per well. Cells treated in the absence of the test compound were the negative control and cells treated in the absence of CellTiter-Glo® 2.0 were the positive control. At the same day of compound treatment, CellTiter-Glo® 2.0 was added to a plate with cells treated in the absence of the test compound to establish Cytostatic control value (CT0). Cells treated with the test compound were incubated at 37° C. with 5% CO2 for 96 hr. CellTiter-Glo reagent was then added to the cells and luminescence was acquired on EnVision™ Multilabel Reader (PerkinElmer, Santa Clara, Calif., USA).
For orientation: Cellular ATP, detected with luciferase, serves as a proxy for viable cell number.
As for `[2H][C@@]1(N2C(=O)c3cccc(NCc4cnn(C5CCN(C(=O)OC(C)(C)C)CC5)c4)c3C2=O)CCC(=O)NC1=O` (single isomer, unassigned) [Compound 185], the GI50 was under 100 nM.
The figure for `[2H][C@]1(N2C(=O)c3cccc(NCc4cnn(C5CCN(C(=O)OC(C)(C)C)CC5)c4)c3C2=O)CCC(=O)NC1=O` (single isomer, unassigned) [Compound 186] is under 100 nM.
The figure for `CC1(C(=O)N2CCC(n3cc(CNc4cccc5c4C(=O)N(C4CCC(=O)NC4=O)C5=O)cn3)CC2)CC1(Cl)Cl` (stereo in doubt) [Compound 182, 4-(((1-(1-((R)-2,2-Dichloro-1-methylcyclopropane-1-carbonyl)piperidin-4-yl)-1H-pyrazol-4-yl)methyl)amino)-2-(2,6-dioxopiperidin-3-yl)isoindoline-1,3-dione] is under 100 nM.
In turn, `CC1(C(=O)N2CCC(n3cc(CNc4cccc5c4C(=O)N(C4CCC(=O)NC4=O)C5=O)cn3)CC2)CC1(Cl)Cl` (stereo in doubt) [Compound 183, 4-(((1-(1-((S)-2,2-Dichloro-1-methylcyclopropane-1-carbonyl)piperidin-4-yl)-1H-pyrazol-4-yl)methyl)amino)-2-(2,6-dioxopiperidin-3-yl)isoindoline-1,3-dione] showed a GI50 of under 1 nM.
Take `COCCC(=O)N1CCC(n2cc(CNc3cccc4c3C(=O)N(C3CCC(=O)NC3=O)C4=O)cn2)CC1` (centres unmarked) [Compound 6, 2-(2,6-dioxopiperidin-3-yl)-4-(((1-(1-(3-methoxypropanyl)piperidin-4-yl)-1H-pyrazol-4-yl)methyl)amino)isoindoline-1,3-dione]: the concentration for 50% growth inhibition (GI50) was under 100 nM.
The same measure for `O=C1CCC(N2C(=O)c3cccc(NCc4cnn(C5CCN(C(=O)c6cnco6)CC5)c4)c3C2=O)C(=O)N1` (centres unmarked) [Compound 7, 2-(2,6-dioxopiperidin-3-yl)-4-(((1-(1-(oxazole-5-carbnonyl)piperidin-4-yl)-1H-pyrazol-4-yl)methyl)amino)isoindoline-1,3-dione]: under 100 nM; for `CC(C)(C)CCC(=O)N1CCC(n2cc(CNc3cccc4c3C(=O)N(C3CCC(=O)NC3=O)C4=O)cn2)CC1` (centres unmarked) [Compound 8, 4-(((1-(1-(4,4-dimethylpentanoyl)piperidin-4-yl)-1H-pyrazol-4-yl)methyl)amino)-2-(2,6-dioxopiperidin-3-yl)isoindoline-1,3-dione]: under 1 nM.
The figure for `CC(C)C(=O)N1CCC(n2cc(CNc3cccc4c3C(=O)N(C3CCC(=O)NC3=O)C4=O)cn2)CC1` (centres unmarked) [Compound 9, 2-(2,6-dioxopiperidin-3-yl)-4-(((1-(1-isobutyrylpiperidin-4-yl)-1H-pyrazol-4-yl)methyl)amino)isoindoline-1,3-dione] is under 100 nM; for `O=C1CCC(N2C(=O)c3cccc(NCc4cnn(C5CCN(C(=O)C(F)F)CC5)c4)c3C2=O)C(=O)N1` (centres unmarked) [Compound 10, 4-(((1-(1-(2,2-difluoroacetyl)piperidin-4-yl)-1H-pyrazol-4-yl)methyl)amino)-2-(2,6-dioxopiperidin-3-yl)isoindoline-1,3-dione] it is under 100 nM; for `O=C1CCC(N2C(=O)c3cccc(NCc4cnn(C5CCN(C(=O)C6CCOCC6)CC5)c4)c3C2=O)C(=O)N1` (centres unmarked) [Compound 11, 2-(2,6-dioxopiperidin-3-yl)-4-(((1-(1-(tetrahydro-2H-pyran-4-carbonyl)piperidin-4-yl)-1H-pyrazol-4-yl)methyl)amino)isoindoline-1,3-dione] it is under 100 nM.
Consider `CC(C)(C)CC(=O)N1CCC(n2cc(CNc3cccc4c3C(=O)N(C3CCC(=O)NC3=O)C4=O)cn2)CC1` (centres unmarked) [Compound 12, 4-(((1-(1-(3,3-dimethylbutanoyl)piperidin-4-yl)-1H-pyrazol-4-yl)methyl)amino)-2-(2,6-dioxopiperidin-3-yl)isoindoline-1,3-dione], for which the GI50 is under 100 nM.
In the case of `CCC(C)C(=O)N1CCC(n2cc(CNc3cccc4c3C(=O)N(C3CCC(=O)NC3=O)C4=O)cn2)CC1` (centres unmarked) [Compound 13, 2-(2,6-dioxopiperidin-3-yl)-4-(((1-(1-(2-methylbutanoyl)piperidin-4-yl)-1H-pyrazol-4-yl)methyl)amio)isoindoline-1,3-dione], the GI50 is under 100 nM.
The same measure for `O=C1CCC(N2C(=O)c3cccc(NCc4cnn(C5CCN(C(=O)C6CCC6)CC5)c4)c3C2=O)C(=O)N1` (centres unmarked) [Compound 14, 4-(((1-(1-(cyclobutanecarbonyl)piperidin-4-yl)-1H-pyrazol-4-yl)methyl)amino)-2-(2,6-dioxopiperidin-3-yl)isoindoline-1,3-dione]: under 100 nM; for `CO[C@H]1CC[C@H](C(=O)N2CCC(n3cc(CNc4cccc5c4C(=O)N(C4CCC(=O)NC4=O)C5=O)cn3)CC2)CC1` (some centres unmarked) [Compound 15, 2-(2,6-dioxopiperidin-3-yl)-4-(((1-(1-((1r,4r)-4-methoxycyclohexane-1-carbonyl)piperidin-4-yl)-1H-pyrazol-4-yl)methyl)amino)isoindoline-1,3-dione]: under 100 nM.
With `O=C1CCC(N2C(=O)c3cccc(NCc4cnn(C5CCN(C(=O)c6ccccc6)CC5)c4)c3C2=O)C(=O)N1` (centres unmarked) [Compound 16, 4-(((1-(1-benzoylpiperidin-4-yl)-1H-pyrazol-4-yl)methyl)amino)-2-(2,6-dioxopiperidin-3-yl)isoindoline-1,3-dione], the GI50 is under 100 nM.
`CCOCC(=O)N1CCC(n2cc(CNc3cccc4c3C(=O)N(C3CCC(=O)NC3=O)C4=O)cn2)CC1` (centres unmarked) [Compound 17, 2-(2,6-dioxopiperidin-3-yl)-4-(((1-(1-(2-ethoxyacetyl)piperidin-4-yl)-1H-pyrazol-4-yl)methyl)amino)isoindoline-1,3-dione] yielded a concentration for 50% growth inhibition (GI50) of under 100 nM.
As to `O=C1CCC(N2C(=O)c3cccc(NCc4cnn(C5CCN(C(=O)Cn6cccn6)CC5)c4)c3C2=O)C(=O)N1` (centres unmarked) [Compound 18, 4-(((1-(1-(2-(1H-pyrazol-1-yl)acetyl)piperidin-4-yl)-1H-pyrazol-4-yl)methyl)amino)-2-(2,6-dioxopiperidin-3-yl)isoindoline-1,3-dione], the GI50 was under 100 nM.
With `N#CCC(=O)N1CCC(n2cc(CNc3cccc4c3C(=O)N(C3CCC(=O)NC3=O)C4=O)cn2)CC1` (centres unmarked) [Compound 19, 3-(4-(4-(((2-(2,6-dioxopiperidin-3-yl)-1,3-dioxoisoindolin-4-yl)amino)methyl)-1H-pyrazol-1-yl)piperidin-1-yl)-3-oxopropanenitrile], the GI50 is under 100 nM.
Take `O=C1CCC(N2C(=O)c3cccc(NCc4cnn(C5CCN(C(=O)CC6CCCC6)CC5)c4)c3C2=O)C(=O)N1` (centres unmarked) [Compound 20, 4-(((1-(1-(2-cyclopentylacetyl)piperidin-4-yl)-1H-pyrazol-4-yl)methyl)amino)-2-(2,6-dioxopiperidin-3-yl)isoindoline-1,3-dione]: the GI50 was under 100 nM.
The compound `O=C1CCC(N2C(=O)c3cccc(NCc4cnn(C5CCN(C(=O)CCC6CC6)CC5)c4)c3C2=O)C(=O)N1` (centres unmarked) [Compound 21, 4-(((1-(1-(3-cyclopropylpropanoyl)piperidin-4-yl)-1H-pyrazol-4-yl)methyl)amino)-2-(2,6-dioxopiperidin-3-yl)isoindoline-1,3-dione] gave a 50% growth inhibitory concentration (GI50) of under 100 nM.
`O=C1CCC(N2C(=O)c3cccc(NCc4cnn(C5CCN(C(=O)C6CCCCC6)CC5)c4)c3C2=O)C(=O)N1` (centres unmarked) [Compound 22, 4-(((1-(1-(cyclohexanecarbonyl)piperidin-4-yl)-1H-pyrazol-4-yl)methyl)amino)-2-(2,6-dioxopiperidin-3-yl)isoindoline-1,3-dione] showed a GI50 of under 100 nM.
Take `CC(C)CCC(=O)N1CCC(n2cc(CNc3cccc4c3C(=O)N(C3CCC(=O)NC3=O)C4=O)cn2)CC1` (centres unmarked) [Compound 23, 2-(2,6-dioxopiperidin-3-yl)-4-(((1-(1-(4-methylpentanoyl)piperidin-4-yl)-1H-pyrazol-4-yl)methyl)amino)isoindoline-1,3-dione]: the GI50 is under 1 nM.
As to `O=C1CCC(N2C(=O)c3cccc(NCc4cnn(C5CCN(C(=O)C6CC6)CC5)c4)c3C2=O)C(=O)N1` (centres unmarked) [Compound 24, 4-(((1-(1-(cyclopropanecarbonyl)piperidin-4-yl)-1H-pyrazol-4-yl)methyl)amino)-2-(2,6-dioxopiperidin-3-yl)isoindoline-1,3-dione], the GI50 is under 100 nM.
The figure for `O=C1CCC(N2C(=O)c3cccc(NCc4cnn(C5CCN(C(=O)Cc6ccc(F)cc6)CC5)c4)c3C2=O)C(=O)N1` (centres unmarked) [Compound 25, 2-(2,6-dioxopiperidin-3-yl)-4-(((1-(1-(2-(4-fluorophenyl)acetyl)piperidin-4-yl)-1H-pyrazol-4-yl)methyl)amino)isoindoline-1,3-dione] is under 100 nM.
Compound `O=C1CCC(N2C(=O)c3cccc(NCc4cnn(C5CCN(C(=O)CC6CC6)CC5)c4)c3C2=O)C(=O)N1` (centres unmarked) [Compound 26, 4-(((1-(1-(2-cyclopropylacetyl)piperidin-4-yl)-1H-pyrazol-4-yl)methyl)amino)-2-(2,6-dioxopiperidin-3-yl)isoindoline-1,3-dione] came in with a GI50 of under 100 nM.
The compound `O=C1CCC(N2C(=O)c3cccc(NCc4cnn(C5CCN(C(=O)CC6CCCCC6)CC5)c4)c3C2=O)C(=O)N1` (centres unmarked) [Compound 27, 4-(((1-(1-(2-cyclohexylacetyl)piperidin-4-yl)-1H-pyrazol-4-yl)methyl)amino)-2-(2,6-dioxopiperidin-3-yl)isoindoline-1,3-dione] showed a GI50 of under 1 nM.

The values above are taken from patent US11753397B2, “Cereblon binders for the degradation of ikaros” (C4 Therapeutics, Inc., priority 2018, dated 2023).
